Publication PMC8991007, “Benzylic Dehydroxylation of Echinocandin Antifungal Drugs Restores Efficacy against Resistance Conferred by Mutated Glucan Synthase” (Journal of the American Chemical Society, 2022)
≈ marks a conversion by molar mass, not a printed value. *1 amine or outer side, *2 acyl side, *3 side chain or, on linkers, in order; H or OH if unused. Where a SMILES comes first, the peptide text is derived from it. Bridges are numbered along the chain shown (N, C = ends). [ ]: non-standard residue; d: D form. The star is where a group is joined. hTyr(3S-OH,4S-OH,3'-OSO3H) = N[C@H](C(=O)O)[C@H](O)[C@@H](O)c1ccc(O)c(OS(=O)(=O)O)c1; Orn(4R-OH,5R-OH) = O=C([C@H](C[C@@H](O)[C@@H](O)N[*:3])N[*:1])[*:2]; Pro(3S-OH,4S-Me) = C[C@H]1CN[C@H](C(=O)O)[C@H]1O; X1 = CCCCCOc1ccc(-c2cc(-c3ccc(C(=O)*)cc3)no2)cc1; Gln(3R-OH) = NC(=O)C[C@@H](O)[C@H](N)C(=O)O; Hyp = O=C(O)[C@@H]1C[C@@H](O)CN1

Legend:
[1] = test system: C. glabrata; assay: Minimum inhibitory concentration broth double-dilution assay; format: cell-based, Candida glabrata; conditions: 24 h, 30 °C
Description: (§1) The antifungal activities of compounds 1 and 2 were evaluated against a panel of 50 strains of C. albicans and C. glabrata (Table S4), including echinocandin-resistant strains that were constructed by introducing mutations within and near the defined hotspots in the FKS1 and/or FKS2 genes.[27] To evaluate antifungal activity, we determined MIC values. The MIC was defined as the lowest drug concentration that led to turbidity (measured at 600 nm) of less than or equal to 35% of that of the untreated culture. As controls, we tested CSF, MCF, ANF, and RZF.
(§2) All of the tested compounds were dissolved in anhydrous DMSO to a concentration of 5 mg/mL. Candida strains were streaked from a glycerol stock onto YPAD agar plates and grown for 24 h at 30 °C. Colonies were suspended in 1 mL of PBS and diluted to an O.D. of 0.01 at 600 nm with YPAD broth and added into flat-bottom 96-well microplates (Corning) containing a gradient of twofold dilutions per tested compound with concentrations ranging from 64 to 0.0009 μg/mL. Control wells with no drug and blank wells without yeast cells containing YPAD only were also prepared. […] Each concentration was tested in triplicate, and results were confirmed by at least two independent sets of experiments.

[2] = test system: C. albicans; assay: as above; format: cell-based, Candida albicans; conditions: 24 h, 30 °C
Description: as §1, §2

[3] = #2 C. albicans DPL1015 (DP-A15)
[4] = #3 C. albicans DPL1016 (DP-A15-10)

Compound	MIC ([1]; #9 C. glabrata EF1620) [µg/mL]	MIC ([1]; #10 C. glabrata TGL00277) [µg/mL]	MIC ([1]; #11 C. glabrata TGL00275) [µg/mL]	MIC ([1]; #12 C. glabrata CST78) [µg/mL]	MIC ([1]; #13 C. glabrata TGL00265) [µg/mL]	MIC ([1]; #14 C. glabrata TGL00264) [µg/mL]	MIC ([1]; #15 C. glabrata TGL00263) [µg/mL]	MIC ([1]; #16 C. glabrata TGL00065) [µg/mL]	MIC ([1]; #17 C. glabrata CST34) [µg/mL]	MIC ([1]; #18 C. glabrata TGL00258) [µg/mL]	MIC ([1]; #19 C. glabrata TGL00256) [µg/mL]	MIC ([1]; #20 C. glabrata TGL00107) [µg/mL]	MIC ([1]; #21 C. glabrata TGL00056) [µg/mL]	MIC ([1]; #22 C. glabrata M12) [µg/mL]	MIC ([1]; #23 C. glabrata TGL00270) [µg/mL]	MIC ([1]; #24 C. glabrata TGL00269) [µg/mL]	MIC ([1]; #25 C. glabrata TGL00268) [µg/mL]	MIC ([1]; #26 C. glabrata TGL00268) [µg/mL]	MIC ([1]; #27 C. glabrata EB0911) [µg/mL]	MIC ([1]; #28 C. glabrata TGL00261) [µg/mL]	further results
CC[C@H](C)C[C@H](C)CCCCCCCCC(=O)N[C@H]1C[C@@H](O)[C@@H](NCCN)NC(=O)[C@@H]2[C@@H](O)CCN2C(=O)[C@H]([C@H](O)CCN)NC(=O)[C@H]([C@H](O)[C@@H](O)c2ccc(O)cc2)NC(=O)[C@@H]2C[C@@H](O)CN2C(=O)[C@H]([C@@H](C)O)NC1=O [CSF, caspofungin]	0.031 (≈ 0.0284 µM)	> 64	32 (≈ 29.3 µM)	0.015 (≈ 0.0137 µM)	> 64	4 (≈ 3.66 µM)	64 (≈ 58.5 µM)	> 64	0.015 (≈ 0.0137 µM)	> 64	16 (≈ 14.6 µM)	> 64	> 64	0.015 (≈ 0.0137 µM)	> 64	16 (≈ 14.6 µM)	> 64	> 64	0.031 (≈ 0.0284 µM)	> 64	MIC ([1]; #29 C. glabrata TGL00109): 64 µg/mL (≈ 58.5 µM); MIC ([1]; #30 C. glabrata TGL00259): > 64 µg/mL; MIC ([2]; #1 C. albicans Sc5314): 0.015 µg/mL (≈ 0.0137 µM); MIC [2, 3]: 1 µg/mL (≈ 0.915 µM); MIC [2, 4]: > 64 µg/mL; MIC ([2]; #4 C. albicans T-2068 (DP-C42)): 32 µg/mL (≈ 29.3 µM); MIC ([2]; #5 C. albicans T-2069 (DP-85)): 16 µg/mL (≈ 14.6 µM); MIC ([2]; #6 C. albicans (DP-89)): > 64 µg/mL; MIC ([2]; #7 C. albicans T-2076 (DP-194)): 1 µg/mL (≈ 0.915 µM); MIC ([2]; #8 C. albicans T-2077 (DP-205)): 16 µg/mL (≈ 14.6 µM)
CCCCCOc1ccc(-c2cc(-c3ccc(C(=O)N[C@H]4C[C@@H](O)[C@@H](O)NC(=O)[C@@H]5[C@@H](O)[C@@H](C)CN5C(=O)[C@H]([C@H](O)CC(N)=O)NC(=O)[C@H]([C@H](O)[C@@H](O)c5ccc(O)c(OS(=O)(=O)O)c5)NC(=O)[C@@H]5C[C@@H](O)CN5C(=O)[C@H]([C@@H](C)O)NC4=O)cc3)no2)cc1 [MCF, micafungin] (X1-[Orn(4R-OH,5R-OH)]T[Hyp][hTyr(3S-OH,4S-OH,3'-OSO3H)][Gln(3R-OH)][Pro(3S-OH,4S-Me)]; lactam 1-C)	0.015 (≈ 0.0118 µM)	8 (≈ 6.3 µM)	2 (≈ 1.57 µM)	0.004 (≈ 0.00315 µM)	1 (≈ 0.787 µM)	> 64	0.125 (≈ 0.0984 µM)	32 (≈ 25.2 µM)	0.002 (≈ 0.00157 µM)	> 64	0.125 (≈ 0.0984 µM)	> 64	> 64	0.002 (≈ 0.00157 µM)	16 (≈ 12.6 µM)	0.125 (≈ 0.0984 µM)	> 64	> 64	0.008 (≈ 0.0063 µM)	4 (≈ 3.15 µM)	MIC ([1]; #29 C. glabrata TGL00109): > 64 µg/mL; MIC ([1]; #30 C. glabrata TGL00259): 32 µg/mL (≈ 25.2 µM); MIC ([2]; #1 C. albicans Sc5314): 0.031 µg/mL (≈ 0.0244 µM); MIC [2, 3]: 1 µg/mL (≈ 0.787 µM); MIC [2, 4]: 16 µg/mL (≈ 12.6 µM); MIC ([2]; #4 C. albicans T-2068 (DP-C42)): 4 µg/mL (≈ 3.15 µM); MIC ([2]; #5 C. albicans T-2069 (DP-85)): 2 µg/mL (≈ 1.57 µM); MIC ([2]; #6 C. albicans (DP-89)): 4 µg/mL (≈ 3.15 µM); MIC ([2]; #7 C. albicans T-2076 (DP-194)): 1 µg/mL (≈ 0.787 µM); MIC ([2]; #8 C. albicans T-2077 (DP-205)): 2 µg/mL (≈ 1.57 µM)
